# In the supplement of paper PMC8882468:
# Test system: HCI-002 (organoid from a triple-negative breast cancer xenograft)
# Experiment: CTG-3D luminescence at 96 h relative to day-0 seeding control (ratio to day 0); higher = more growth / less cytotoxicity; PDxO 3D drug screen, 96 h, CTG-3D normalised to day-0 seeding control.
# Settings: 100 µM; days in culture: 191
row,SMILES,CTG-3D luminescence at 96 h
1,CC(C)(C(=O)NCC(F)(F)C(F)(F)F)C(=O)N[C@@H]1C(=O)Nc2ccccc2-c2ccccc21,1.81
2,CCN(c1cc(C#CCN2CCOCC2)cc(C(=O)NCc2c(C)cc(C)[nH]c2=O)c1C)[C@H]1CC[C@H](N(C)CCOC)CC1,3.54
3,NC(=O)Nc1cc(-c2cccc(F)c2)sc1C(=O)N[C@H]1CCCNC1 [AZD7762],0.00388
4,O=C(/C=C/c1cccnc1)NCCCCC1CCN(C(=O)c2ccccc2)CC1 [FK866],0.0916
5,CCc1c2c(nc3ccc(O)cc13)-c1cc3c(c(=O)n1C2)COC(=O)[C@]3(O)CC [SN-38],0.0208
6,CCN1CCN(Cc2ccc(Nc3ncc(F)c(-c4cc(F)c5nc(C)n(C(C)C)c5c4)n3)nc2)CC1 [abemaciclib],0.018
7,C=CCn1c(=O)c2cnc(Nc3ccc(N4CCN(C)CC4)cc3)nc2n1-c1cccc(C(C)(C)O)n1 [adavosertib],0.507

# Same assay, conditions: 100 µM; days in culture: 209
row,SMILES,CTG-3D luminescence at 96 h
1,CC(C)(C(=O)NCC(F)(F)C(F)(F)F)C(=O)N[C@@H]1C(=O)Nc2ccccc2-c2ccccc21,1.55
2,CCN(c1cc(C#CCN2CCOCC2)cc(C(=O)NCc2c(C)cc(C)[nH]c2=O)c1C)[C@H]1CC[C@H](N(C)CCOC)CC1,2.79
3,NC(=O)Nc1cc(-c2cccc(F)c2)sc1C(=O)N[C@H]1CCCNC1 [AZD7762],0.00089
4,O=C(/C=C/c1cccnc1)NCCCCC1CCN(C(=O)c2ccccc2)CC1 [FK866],0.062
5,CCc1c2c(nc3ccc(O)cc13)-c1cc3c(c(=O)n1C2)COC(=O)[C@]3(O)CC [SN-38],0.0205
6,CCN1CCN(Cc2ccc(Nc3ncc(F)c(-c4cc(F)c5nc(C)n(C(C)C)c5c4)n3)nc2)CC1 [abemaciclib],0.014
7,C=CCn1c(=O)c2cnc(Nc3ccc(N4CCN(C)CC4)cc3)nc2n1-c1cccc(C(C)(C)O)n1 [adavosertib],0.128

# Same assay, conditions: 100 µM; days in culture: 227
row,SMILES,CTG-3D luminescence at 96 h
1,CC(C)(C(=O)NCC(F)(F)C(F)(F)F)C(=O)N[C@@H]1C(=O)Nc2ccccc2-c2ccccc21,2.44
2,CCN(c1cc(C#CCN2CCOCC2)cc(C(=O)NCc2c(C)cc(C)[nH]c2=O)c1C)[C@H]1CC[C@H](N(C)CCOC)CC1,4.2
3,NC(=O)Nc1cc(-c2cccc(F)c2)sc1C(=O)N[C@H]1CCCNC1 [AZD7762],-0.201
4,O=C(/C=C/c1cccnc1)NCCCCC1CCN(C(=O)c2ccccc2)CC1 [FK866],0.0754
5,CCc1c2c(nc3ccc(O)cc13)-c1cc3c(c(=O)n1C2)COC(=O)[C@]3(O)CC [SN-38],0.038
6,CCN1CCN(Cc2ccc(Nc3ncc(F)c(-c4cc(F)c5nc(C)n(C(C)C)c5c4)n3)nc2)CC1 [abemaciclib],0.0285
7,C=CCn1c(=O)c2cnc(Nc3ccc(N4CCN(C)CC4)cc3)nc2n1-c1cccc(C(C)(C)O)n1 [adavosertib],0.123

# Same assay, conditions: 625 fM; days in culture: 62
row,SMILES,CTG-3D luminescence at 96 h
1,CC(C)(C(=O)NCC(F)(F)C(F)(F)F)C(=O)N[C@@H]1C(=O)Nc2ccccc2-c2ccccc21,2.63
2,CCN(c1cc(C#CCN2CCOCC2)cc(C(=O)NCc2c(C)cc(C)[nH]c2=O)c1C)[C@H]1CC[C@H](N(C)CCOC)CC1,3.54
3,NC(=O)Nc1cc(-c2cccc(F)c2)sc1C(=O)N[C@H]1CCCNC1 [AZD7762],3.08
4,O=C(/C=C/c1cccnc1)NCCCCC1CCN(C(=O)c2ccccc2)CC1 [FK866],3.07
5,CCc1c2c(nc3ccc(O)cc13)-c1cc3c(c(=O)n1C2)COC(=O)[C@]3(O)CC [SN-38],3.05
6,CCN1CCN(Cc2ccc(Nc3ncc(F)c(-c4cc(F)c5nc(C)n(C(C)C)c5c4)n3)nc2)CC1 [abemaciclib],2.98
7,C=CCn1c(=O)c2cnc(Nc3ccc(N4CCN(C)CC4)cc3)nc2n1-c1cccc(C(C)(C)O)n1 [adavosertib],2.86

# Same assay, conditions: 625 fM; days in culture: 82
row,SMILES,CTG-3D luminescence at 96 h
1,CC(C)(C(=O)NCC(F)(F)C(F)(F)F)C(=O)N[C@@H]1C(=O)Nc2ccccc2-c2ccccc21,3.05
2,CCN(c1cc(C#CCN2CCOCC2)cc(C(=O)NCc2c(C)cc(C)[nH]c2=O)c1C)[C@H]1CC[C@H](N(C)CCOC)CC1,3.6
3,NC(=O)Nc1cc(-c2cccc(F)c2)sc1C(=O)N[C@H]1CCCNC1 [AZD7762],2.87
4,O=C(/C=C/c1cccnc1)NCCCCC1CCN(C(=O)c2ccccc2)CC1 [FK866],3.06
5,CCc1c2c(nc3ccc(O)cc13)-c1cc3c(c(=O)n1C2)COC(=O)[C@]3(O)CC [SN-38],3.43
6,CCN1CCN(Cc2ccc(Nc3ncc(F)c(-c4cc(F)c5nc(C)n(C(C)C)c5c4)n3)nc2)CC1 [abemaciclib],2.83
7,C=CCn1c(=O)c2cnc(Nc3ccc(N4CCN(C)CC4)cc3)nc2n1-c1cccc(C(C)(C)O)n1 [adavosertib],2.69

# Same assay, conditions: 625 fM; days in culture: 91
row,SMILES,CTG-3D luminescence at 96 h
1,CC(C)(C(=O)NCC(F)(F)C(F)(F)F)C(=O)N[C@@H]1C(=O)Nc2ccccc2-c2ccccc21,4.61
2,CCN(c1cc(C#CCN2CCOCC2)cc(C(=O)NCc2c(C)cc(C)[nH]c2=O)c1C)[C@H]1CC[C@H](N(C)CCOC)CC1,3.17
3,NC(=O)Nc1cc(-c2cccc(F)c2)sc1C(=O)N[C@H]1CCCNC1 [AZD7762],4.19
4,O=C(/C=C/c1cccnc1)NCCCCC1CCN(C(=O)c2ccccc2)CC1 [FK866],4.36
5,CCc1c2c(nc3ccc(O)cc13)-c1cc3c(c(=O)n1C2)COC(=O)[C@]3(O)CC [SN-38],3.54
6,CCN1CCN(Cc2ccc(Nc3ncc(F)c(-c4cc(F)c5nc(C)n(C(C)C)c5c4)n3)nc2)CC1 [abemaciclib],3.9
7,C=CCn1c(=O)c2cnc(Nc3ccc(N4CCN(C)CC4)cc3)nc2n1-c1cccc(C(C)(C)O)n1 [adavosertib],4.31

# Same assay, conditions: 625 fM; days in culture: 191
row,SMILES,CTG-3D luminescence at 96 h
1,CC(C)(C(=O)NCC(F)(F)C(F)(F)F)C(=O)N[C@@H]1C(=O)Nc2ccccc2-c2ccccc21,2.66
2,CCN(c1cc(C#CCN2CCOCC2)cc(C(=O)NCc2c(C)cc(C)[nH]c2=O)c1C)[C@H]1CC[C@H](N(C)CCOC)CC1,3.51
3,NC(=O)Nc1cc(-c2cccc(F)c2)sc1C(=O)N[C@H]1CCCNC1 [AZD7762],2.69
4,O=C(/C=C/c1cccnc1)NCCCCC1CCN(C(=O)c2ccccc2)CC1 [FK866],2.43
5,CCc1c2c(nc3ccc(O)cc13)-c1cc3c(c(=O)n1C2)COC(=O)[C@]3(O)CC [SN-38],2.87
6,CCN1CCN(Cc2ccc(Nc3ncc(F)c(-c4cc(F)c5nc(C)n(C(C)C)c5c4)n3)nc2)CC1 [abemaciclib],2.57
7,C=CCn1c(=O)c2cnc(Nc3ccc(N4CCN(C)CC4)cc3)nc2n1-c1cccc(C(C)(C)O)n1 [adavosertib],2.47

# Same assay, conditions: 625 fM; days in culture: 209
row,SMILES,CTG-3D luminescence at 96 h
1,CC(C)(C(=O)NCC(F)(F)C(F)(F)F)C(=O)N[C@@H]1C(=O)Nc2ccccc2-c2ccccc21,2.4
2,CCN(c1cc(C#CCN2CCOCC2)cc(C(=O)NCc2c(C)cc(C)[nH]c2=O)c1C)[C@H]1CC[C@H](N(C)CCOC)CC1,2.8
3,NC(=O)Nc1cc(-c2cccc(F)c2)sc1C(=O)N[C@H]1CCCNC1 [AZD7762],2.27
4,O=C(/C=C/c1cccnc1)NCCCCC1CCN(C(=O)c2ccccc2)CC1 [FK866],2.4
5,CCc1c2c(nc3ccc(O)cc13)-c1cc3c(c(=O)n1C2)COC(=O)[C@]3(O)CC [SN-38],2.49
6,CCN1CCN(Cc2ccc(Nc3ncc(F)c(-c4cc(F)c5nc(C)n(C(C)C)c5c4)n3)nc2)CC1 [abemaciclib],2.36
7,C=CCn1c(=O)c2cnc(Nc3ccc(N4CCN(C)CC4)cc3)nc2n1-c1cccc(C(C)(C)O)n1 [adavosertib],2.35

# Same assay, conditions: 625 fM; days in culture: 227
row,SMILES,CTG-3D luminescence at 96 h
1,CC(C)(C(=O)NCC(F)(F)C(F)(F)F)C(=O)N[C@@H]1C(=O)Nc2ccccc2-c2ccccc21,6.16
2,CCN(c1cc(C#CCN2CCOCC2)cc(C(=O)NCc2c(C)cc(C)[nH]c2=O)c1C)[C@H]1CC[C@H](N(C)CCOC)CC1,5.52
3,NC(=O)Nc1cc(-c2cccc(F)c2)sc1C(=O)N[C@H]1CCCNC1 [AZD7762],6.1
4,O=C(/C=C/c1cccnc1)NCCCCC1CCN(C(=O)c2ccccc2)CC1 [FK866],5.65
5,CCc1c2c(nc3ccc(O)cc13)-c1cc3c(c(=O)n1C2)COC(=O)[C@]3(O)CC [SN-38],5.49
6,CCN1CCN(Cc2ccc(Nc3ncc(F)c(-c4cc(F)c5nc(C)n(C(C)C)c5c4)n3)nc2)CC1 [abemaciclib],5.64
7,C=CCn1c(=O)c2cnc(Nc3ccc(N4CCN(C)CC4)cc3)nc2n1-c1cccc(C(C)(C)O)n1 [adavosertib],6.55
